Experimental data taken from the NIST ThermoML archive (doi:10.1016/j.fluid.2011.11.013).
± gives the expanded uncertainty stated by the source.

Details: Liquid, Closed cell (Static) method

SMILES: FC(F)C(F)F [1,1,2,2-tetrafluoroethane]
- vapor or sublimation pressure (258.15 K): 124.3 ± 1.1 kPa
- vapor or sublimation pressure (263.15 K): 153 ± 1.1 kPa
- vapor or sublimation pressure (273.15 K): 225.9 ± 1.2 kPa
- vapor or sublimation pressure (283.15 K): 323.4 ± 1.5 kPa

SMILES: FC(F)(F)I [trifluoroiodomethane]
- vapor or sublimation pressure (258.15 K): 133 ± 1.1 kPa
- vapor or sublimation pressure (263.15 K): 160.4 ± 1.1 kPa
- vapor or sublimation pressure (273.15 K): 228.4 ± 1.2 kPa
- vapor or sublimation pressure (283.15 K): 316.4 ± 1.4 kPa
